# Source: patent US12258377B2 (Scancell Limited, priority 2012, dated 2025)
# Read-outs that look alike come from different tables or passages of the source. Square brackets hold non-standard residues; d marks the D form. Ends that are not written are not given here. Cit = NC(=O)NCCC[C@H](N)C(=O)O
# Columns and labels:
# splenocytes [1] = assay: Ex vivo elispot assay on splenocytes of immunised C57B1 mice; type: in vivo, C57BL/6 mice; conditions: C57B1 mice
# Procedure: (§1) C57BL/6 mice (Charles River, UK), HLA-DR4 mice (Taconic, USA), HHDII mice (Pasteur institute, France) and HHDII/DRI mice (Pasteur institute, France) were used, aged between 8 and 12 weeks, and cared for by the staff at Nottingham Trent University. All work was carried out under a Home Office project license. Peptides were dissolved in 10% Dimethylformamide to 1 mg/ml and then emulsified (a series of dilutions) with different adjuvants: CpG and MPLA 6 μg/mouse of each (Invivogen, UK), Incomplete Freund's […] (Sigma, UK), and GMCSF 10 μg/mouse (Peprotech, UK). Peptides (25 μg/mouse) were injected subcutaneously at the base of the tail. DNA (1 μg/mouse) was coated onto 1.0 μm gold particles (BioRad, Hemel Hempstead, UK) using the manufacturer's instructions and administered intradermally by genegun (BioRad). Homspera (10 nM/mouse) (PeptideSynthetics, UK) was injected intradermally with genegun immunisation. Mice were immunized at either day 0 for peptide immunisation or days, 0, 7, and 14 for peptide and genegun immunisation. Spleens were removed for analysis at day 14 for peptide and day 20 for peptide or genegun immunisation unless stated otherwise. 400 μg Anti-CD25 antibody (PC61) was administered i.p. in saline 3 days prior to the immunisation. 200 μg Anti-CTLA-4 antibody (UC 10-4F, 10-11) was administered i.p. in saline at day 7 and 14 with either genegun or peptide immunisation.
# (§2) Elispot assays were performed using murine IFNγ, IL-17 and IL-10 capture and detection reagents according to the manufacturer's instructions (Mabtech, Sweden). In brief, anti-IFNγ, IL-17 and IL-10 antibodies were coated onto wells of 96-well Immobilin-P plate. Synthetic peptides (at a variety of concentrations) and 5×10^5 per well splenocytes were added to the wells of the plate in triplicate. Tumour target cells were added where relevant at 5×10^4/well in triplicate and plates incubated for 40 hrs at 37° C. After incubation, captured IFNγ, […], IL-17 and IL-10 were detected by biotinylated anti-IFNγ, IL-17 and IL-10 antibodies and developed with a strepatavidin alkaline phosphatase and chromogenic substrate. Spots were analysed and counted using an automated plate reader (Cellular Technologies Ltd). Functional avidity was calculated as the concentration mediating 50% maximal effector function using a graph of effector function versus peptide concentration.
# T2 DR4 tumour cells = assay: 51Cr-release assay, CTL lines from immunised mice against T2 DR4 cells; type: cell-based; conditions: for killing of normal splenocytes: DR4 splenocytes; for killing of T2 tumour cells transfected with human DR4: targets pulsed with peptide or not
# Procedure: Target cells were labelled for 1 hr with 1.85 MBq sodium (^51Cr) chromate (Amersham, Essex, UK) with or without 10 μg/ml peptide. Post incubation they were washed 3 times in RPMI. Targets 5×10^3/well of a 96-well V-bottomed plates were set up and co incubated with different densities of effector cells in a final volume of 200 μl of RPMI, 10% FCS (Sigma), 20 mM HEPES buffer, 2 mM L-glutamine, 100 units/ml penicillin and 100 μg/ml streptomycin. After 20 hrs at 37° C., 50 μl of supernatants were removed from each well and transferred to a Lumaplate (Packard, Rigaweg, the Netherlands). Plates were read on a Topcount Microplate Scintillation Counter (Packard). Percentage specific lysis was calculated using the following formula: specific lysis=100×[(experimental release−spontaneous release)/(maximum release−spontaneous release)].
# Granzyme B = Granzyme B ELISA on supernatant of ex vivo IFNγ elispot; type: cell-based, HLA-DR4 transgenic mice; conditions: immunised days 0, 7, 14 in CPG and MPLA
# Excerpt: Supernatant from ex vivo IFNγ elispot assays on splenocytes was removed after 40 hrs and assessed for Granzyme B by elisa assay (R&D systems) according to manufacturer's instructions.
# B16F1 cells = assay: Tumour challenge with B16 tumour lacking HLA-DR0401; type: in vivo, HLA-DR4 transgenic mice; conditions: B16 tumour lacking expression of HLA-DR0401; 25 μg peptide in CpG and MPLA
# Procedure: (§3) For tumour challenge experiments mice were challenged with 2.5×10^4 B16 HHDII NYESO/TAP2 siβ2m 1F10 cells or B16 DR4 2E7 cells subcutaneously on the right flank 3 days prior to primary immunisation and then were immunised as above. Anti-IFNγ antibody (300 μg/dose), anti-IL-17 antibody (200 μg/dose) and anti-HLA-DR antibody (300 μg/dose) were administered i.p. in saline at days 2, 7, 11 and 14 post tumour implant. Anti-CD4 antibody (500 μg/dose) was administered i.p.in saline at days 2 and 8 post tumour implant. Tumour growth was monitored at 3-4 days intervals and mice were humanely euthanized once tumour reached ≥10 mm in diameter.
# B16F1-DR4 cells = assay: Tumour challenge with B16F1-DR4 cells; type: in vivo, HLA-DR4 transgenic mice; conditions: for anti-tumour response with blockade of IFNγ in vivo: IFNγ neutralising monoclonal antibody; for anti-tumour response with blockade of IL-17 in vivo: IL-17 neutralising antibody; for anti-tumour response in combination with CD4 T cell depletion (anti-CD4 antibody): clone GK1.5; for anti-tumour response / survival: peptide 25 μg in CpG and MPLA s.c. or DNA via gene gun, days 4, 11, 18, versus unimmunised control
# Procedure: as §3
# splenocytes [2] = assay: Ex vivo elispot assay on splenocytes of immunised HLA-DR1 / HLA-A2/DR1 (HHDII/DR1) transgenic mice; type: in vivo; conditions: HHD1/DR1 mice
# Procedure: as §1, §2
# PBMC = assay: Proliferation assay of PBMC from cancer patients; type: cell-based, human; conditions: PBMC stimulated with 10 μg/ml peptide for 4, 7 and 11 days, 3H-thymidine
# Procedure: PBMC were isolated from freshly drawn heparinised blood by Ficol-Hypaque (Sigma) gradient centrifugation. PBMC (1.5×10^6 cells/well) were stimulated with single peptides (final concentration 10 μg/ml) in RPMI containing 5% pooled autologous human serum, 2 mM glutamine, 20 mM HEPES and Penicillin-streptomycin (1%) in a final volume of 2 ml. Stimulation with purified protein derivative, PPD (final concentration 10 μg/ml) served as a positive control for the proliferative capacity of PBMC. As a negative control PBMC were incubated with medium alone. The PBMC were cultured at 37° C. in an atmosphere of 5% CO2 for 4, 7 and 11 days. To assess proliferation at these times points 100 μl in triplicate from each culture was aliquoted into a round bottom well of a 96 well plate and ^3H-thymidine added (0.0185 MBq/well) and incubated at 37° C. for a further 8 hours. The cultures were harvested onto unifilter plates and incorporation of ^3H-thymidine was determined by β-scintillation counting. The results were assessed by calculating the stimulation index (SI) as the ratio of the mean of counts per minute (cpm) of epitope-stimulated to the mean of unstimulated cultures. The proliferative assay was considered positive when SI >2.5.
# splenocytes [3] = assay: Ex vivo elispot assay on splenocytes of immunised HLA-DR4 transgenic mice; type: in vivo; conditions: for IFNγ/IL-17 response with alum or IFA / IFNγ/IL-17 responses with CpG/MPLA, GMCSF and TMX201 adjuvants / IL-10 responses to the citrullinated peptides with IFA: 25 μg peptide s.c.; for IL-10 elispot responses: against wild type and citrullinated peptides; for IFNγ elispot response to citrullinated peptide, mean / IFNγ elispot response to wild type peptide, mean: day 14 splenocytes; for response after depletion of CD4 cells or addition of MHC class II blocking antibody: L243 antibody, FIG. 15
# Procedure: as §1, §2
# HLA-DR0401 [4] = biological target: HLA-DR0401 (Homo sapiens, UniProt P01903+P01911, A100K/A169T/F76Y/I96L/K127E/L162R/M171V/N62H/P40V/Q125Y/R42H/S133A/S149N/S66Y/V115G/V209L/W38E); assay: HLADR0401 competitive binding assay against biotinylated HA306-318; conditions: FIG. 12
# Excerpt: In brief, peptides of interest were mixed with a predetermined concentration biotinylated HA306-318 reference peptide at increasing concentrations and added to plate bound HLA DR0401. Amounts of biotinylated reference peptide binding to HLA DR0401 was quantified using streptavidin linked enzyme step followed by detection with chromogenic substrate. Maximal binding is taken as the value achieved by biotinylated HA 306-318 peptide alone. As a positive control unlabelled HA 306-318 peptide was used to compete with the biotinylated version.
# HLA-DR0401 [5] = biological target: T1, HLA-DR0401 (human); assay: competitive binding assay, plate-bound HLA-DR0401, biotinylated HA306-318 as competitor
# T1 construct: also called purified HLA-DR0401; HLA-DR4
# [6] = 25 μg peptide in CpG and MPLA s.c. days 4, 11, 18
# [7] = 25 μg peptide with CpG and MPLA day 0, day 14
# [8] = 25 μg peptide with CpG and MPLA day 0, day 14, peptide 5 μM
# [9] = 25 μg peptide with CpG and MPLA day 0, peptide 5 μM
Molecule,response after peptide immunisation (splenocytes [1]),killing of normal splenocytes (T2 DR4 tumour cells),killing of T2 tumour cells transfected with human DR4 (T2 DR4 tumour cells),Granzyme B release upon stimulation with citrullinated peptides (Granzyme B),tumour growth and survival (B16F1 cells),anti-tumour response with blockade of IFNγ in vivo (B16F1-DR4 cells),anti-tumour response with blockade of IL-17 in vivo (B16F1-DR4 cells),anti-tumour response in combination with CD4 T cell depletion (anti-CD4 antibody) (B16F1-DR4 cells),anti-tumour response / survival (B16F1-DR4 cells),response after peptide immunisation (splenocytes [2]),IFNγ/IL-17 response with alum or IFA (splenocytes [3]; day 14),"IFNγ/IL-17 responses with CpG/MPLA, GMCSF and TMX201 adjuvants (splenocytes [3]; day 14)",IL-10 responses to the citrullinated peptides with IFA (splenocytes [3]; day 14),IL-10 elispot responses (splenocytes [3]; [7]),"IFNγ elispot response to citrullinated peptide, mean (splenocytes [3]; [9])","IFNγ elispot response to wild type peptide, mean (splenocytes [3]; [9])",response after depletion of CD4 cells or addition of MHC class II blocking antibody (splenocytes [3]; IFNγ elispot),other results
LPNFSSLNLRETNLDSLPL [citrullinated vim 415],failed to raise a response,no killing of normal splenocytes,killed transfected targets whether they were pulsed with the appropriate peptide or not,release of Granzyme B,failed to show any tumour response,abrogates,low significant influence,totally abrogates the anti-tumour response,strong anti-tumour responses,failed to raise a response,no response,Potent IFNγ/IL-17 responses,high frequency IL-10 responses,No significant IL-10 responses,1000 /million splenocytes,no responses,CD4 mediated,"mice cured of their tumour (B16F1-DR4 cells; [6]): 30%; mice with no tumour at day 35 (B16F1-DR4 cells; [6]): 50%; anti-tumour response in combination with anti-HLA-DR blocking antibody (B16F1-DR4 cells; B16 tumour expressing HLA-DR0401): prevents the anti-tumour response; patients showing a proliferative response (SI >2.5) (PBMC; listed as citrullinated vim 415-433): 5/11; patients showing a proliferative response (SI >2.5) (PBMC; listed as vim 415 cit): Five of eight; EC50 (splenocytes [3]; 25 μg peptide days 0, 7, 14, anti-CTLA-4 days 7 and 14, day 21, IFNγ elispot, read-out: avidity of the T cell response in the presence of an anti-CTLA-4 mab): 10 nM; EC50 (splenocytes [3]; 25 μg peptide days 0, 7, 14, day 21, IFNγ elispot, read-out: avidity of the T cell response without anti-CTLA-4 mab): 1000 nM; IL-2 elispot response to citrullinated peptide, mean (splenocytes [3]; [8]): 350 /million splenocytes; IL-2 elispot response to wild type peptide (splenocytes [3]; [8]): no response; IL-17 elispot response to citrullinated peptide, mean (splenocytes [3]; [8]): 530 /million splenocytes; IL-17 elispot response to wild type peptide, mean (splenocytes [3]; [8]): 140 /million splenocytes; T cell responses to mouse vim 415 cit versus human vim 415 cit (splenocytes [3]; immunised with 25 μg human peptide day 0, day 14, IFNγ and IL-17 elispot): equal responses to both peptides; T helper phenotype when immunised with complete Freund's adjuvant (splenocytes [3]; mouse, in vivo): Th1/IL-17 phenotype"
citSYVTTSTcitTYSLGSALcitPSTS ([Cit]SYVTTST[Cit]TYSLGSAL[Cit]PSTS) [citrullinated vim 28-49],failed to raise a response,no killing of normal splenocytes,killed transfected targets whether they were pulsed with the appropriate peptide or not,release of Granzyme B,delayed tumour growth and enhanced survival,abrogates,small effect significant influence,totally abrogates the anti-tumour response,significantly enhanced survival,failed to raise a response,no response,Potent IFNγ/IL-17 responses,high frequency IL-10 responses,No significant IL-10 responses,600 /million splenocytes,250 /million splenocytes,CD4 mediated,"binding to HLA-DR0401 (competition with HA 306-318 reference peptide) (HLA-DR0401 [4]): better binding to HLA-DR0401 compared to the wild type version; patients showing a proliferative response (SI >2.5) (PBMC): 5/11; patients showing a proliferative response (SI >2.5) (PBMC; listed as vim 28 cit): five; EC50 (splenocytes [3]; 25 μg peptide day 0, day 14, increasing peptide concentration, IFNγ elispot, read-out: avidity of the IFNγ response (concentration mediating 50% maximal effector function)): 1000 nM; EC50 (splenocytes [3]; 25 μg peptide day 0, day 14, increasing peptide concentration, IL-17 elispot, read-out: avidity of the IL-17 response (concentration mediating 50% maximal effector function)): 1000 nM; IFNγ elispot response against vimentin 28-49 triple, double and single citrullinated peptides (splenocytes [3]; peptide immunisation, FIG. 11): significantly stronger response"
RSYVTTSTRTYSLGSALRPSTS (also called vim 28-49; vim 28) [Vimentin 28-49 wild type peptide],,,,,,,,,,,,,,,,,,binding result (HLA-DR0401 [5]): binds
